Here are results for 1 molecule from ChEMBL document CHEMBL1148587, “Imidazo[1,2-a]pyrimidines as functionally selective and orally bioavailable GABA(A)alpha2/alpha3 binding site agonists for the treatment of anxiety disorders” (J Med Chem, 2006).

The source made the active and inactive calls. The calls are words filed in the database; no cut-off is given here.

The experiment concerns Rattus norvegicus. As to the kind of experiment: Activity in rat elevated plus maze assay at 5 mg/kg, ip. Also noted: dose 5 mg/kg. Format: functional, organism-based.

Take `CNC1=Nc2ccc(Cl)cc2C(c2ccccc2)=[N+]([O-])C1`: the result was Active.
